Data reported in ChEMBL document CHEMBL1141937, “Inhibition of Tpl2 kinase and TNF-alpha production with 1,7-naphthyridine-3-carbonitriles: synthesis and structure-activity relationships” (Bioorg Med Chem Lett, 2005).
≈ marks a conversion by molar mass, not a printed value. Blank lines part the entries; values can stand above or below the molecule they belong to.

What was measured:
[1] = molecular target: T1, Mitogen-activated protein kinase kinase kinase 8 (Homo sapiens, UniProt P41279); assay: Inhibitory activity against human Tpl2 kinase via quantification of MEK phosphorylation; assay type: functional
Target sequence in this assay (P41279 whole entry): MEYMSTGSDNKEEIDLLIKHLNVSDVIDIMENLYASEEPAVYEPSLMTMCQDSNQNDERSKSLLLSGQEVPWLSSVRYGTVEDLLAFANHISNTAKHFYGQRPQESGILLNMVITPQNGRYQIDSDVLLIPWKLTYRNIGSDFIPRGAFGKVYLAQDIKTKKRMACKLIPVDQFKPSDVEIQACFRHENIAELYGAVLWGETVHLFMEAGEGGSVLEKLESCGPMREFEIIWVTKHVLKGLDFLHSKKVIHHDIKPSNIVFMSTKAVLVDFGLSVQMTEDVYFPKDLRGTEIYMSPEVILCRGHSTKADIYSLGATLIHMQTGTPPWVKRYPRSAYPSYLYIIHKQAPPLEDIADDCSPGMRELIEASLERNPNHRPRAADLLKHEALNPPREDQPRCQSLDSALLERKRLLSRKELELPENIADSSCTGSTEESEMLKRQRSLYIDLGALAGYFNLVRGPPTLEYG

[2] = Plasma binding to human serum albumin; assay type: ADME; settings: read-out: PPB (converted)
[3] = molecular target: Dual specificity mitogen-activated protein kinase kinase 1 (Homo sapiens, UniProt Q02750); assay: Inhibitory activity against MEK
Chain of Dual specificity mitogen-activated protein kinase kinase 1 (Q02750 whole entry): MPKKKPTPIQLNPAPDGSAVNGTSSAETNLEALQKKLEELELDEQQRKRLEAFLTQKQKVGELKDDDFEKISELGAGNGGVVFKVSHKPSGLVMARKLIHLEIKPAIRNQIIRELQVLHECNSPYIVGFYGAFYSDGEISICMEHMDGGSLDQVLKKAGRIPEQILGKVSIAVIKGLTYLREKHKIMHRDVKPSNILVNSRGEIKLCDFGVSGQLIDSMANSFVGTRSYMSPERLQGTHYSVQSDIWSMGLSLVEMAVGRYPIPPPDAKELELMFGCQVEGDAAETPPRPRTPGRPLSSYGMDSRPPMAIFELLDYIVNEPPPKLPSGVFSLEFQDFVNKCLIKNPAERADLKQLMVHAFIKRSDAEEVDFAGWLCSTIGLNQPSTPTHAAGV

[4] = molecular target: MAP kinase-activated protein kinase 2 (Homo sapiens, UniProt P49137); assay: Inhibitory activity against MK2
Chain of MAP kinase-activated protein kinase 2 (P49137 whole entry): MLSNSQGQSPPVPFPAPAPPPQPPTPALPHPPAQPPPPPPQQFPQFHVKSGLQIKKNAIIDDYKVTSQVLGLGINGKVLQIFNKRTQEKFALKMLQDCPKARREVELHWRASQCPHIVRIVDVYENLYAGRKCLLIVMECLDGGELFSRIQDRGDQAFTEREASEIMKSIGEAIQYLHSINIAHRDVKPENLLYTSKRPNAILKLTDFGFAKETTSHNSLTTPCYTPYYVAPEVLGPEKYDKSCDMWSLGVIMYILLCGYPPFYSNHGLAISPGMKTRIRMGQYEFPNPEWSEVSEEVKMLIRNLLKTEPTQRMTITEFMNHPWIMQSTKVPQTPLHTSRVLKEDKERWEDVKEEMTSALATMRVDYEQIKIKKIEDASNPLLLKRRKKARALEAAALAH

[5] = Solubility determined; assay type: physicochemical
Protein kinase C (PKC) = assay: Inhibitory activity against PKC; assay type: protein assay
[6] = molecular target: Proto-oncogene tyrosine-protein kinase Src (Homo sapiens, UniProt P12931); assay: Inhibitory activity against Src
Chain of Proto-oncogene tyrosine-protein kinase Src (P12931 2-536 limits assumed): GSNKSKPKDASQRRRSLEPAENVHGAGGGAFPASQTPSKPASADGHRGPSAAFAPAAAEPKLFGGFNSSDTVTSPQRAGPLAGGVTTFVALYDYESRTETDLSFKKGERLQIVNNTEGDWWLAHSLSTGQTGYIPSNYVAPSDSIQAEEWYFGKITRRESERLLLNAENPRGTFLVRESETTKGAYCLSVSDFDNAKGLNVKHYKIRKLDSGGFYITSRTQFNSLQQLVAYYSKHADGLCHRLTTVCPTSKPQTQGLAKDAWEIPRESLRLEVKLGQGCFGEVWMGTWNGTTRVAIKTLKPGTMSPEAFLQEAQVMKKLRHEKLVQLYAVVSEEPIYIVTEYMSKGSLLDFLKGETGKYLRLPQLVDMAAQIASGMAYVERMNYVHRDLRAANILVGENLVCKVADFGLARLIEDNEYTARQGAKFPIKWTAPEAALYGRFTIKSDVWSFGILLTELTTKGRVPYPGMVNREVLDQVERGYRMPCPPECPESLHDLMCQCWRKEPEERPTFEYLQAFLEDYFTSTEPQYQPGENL

MAP kinase p38 = MAP kinase p38 (Homo sapiens, UniProt O15264+Q15759+Q16539+P53778); assay: Inhibitory activity against p38; assay type: protein assay
[7] = molecular target: T1, Mitogen-activated protein kinase kinase kinase 8; assay: Inhibition of LPS-induced TNFalpha production in human whole blood
Target sequence in this assay (P41279 whole entry, looked up): as the sequence (P41279 whole entry) above

[8] = molecular target: T1, Mitogen-activated protein kinase kinase kinase 8; assay: Inhibition of LPS-induced TNFalpha production in primary human monocytes
Target sequence in this assay (P41279 whole entry, looked up): as the sequence (P41279 whole entry) above

IC50 [1]: 27 µM
SMILES: C[C@H](Nc1cc2c(Nc3ccc(F)c(Cl)c3)c(C#N)cnc2cn1)c1ccccc1

IC50 [1]: > 40 µM
SMILES: Cc1c(Br)cccc1Nc1c(C#N)cnc2cnc(NCCN3CCOCC3)cc12

IC50 [1]: 3.4 µM
SMILES: N#Cc1cnc2cnc(NCCCN3CCOCC3)cc2c1Nc1ccc(F)c(Cl)c1

IC50 [1]: > 40 µM
SMILES: N#Cc1cnc2cnc(NCCN3CCOCC3)cc2c1Nc1ccc(C(F)(F)F)cc1

IC50 [1]: 10 µM
SMILES: N#Cc1cnc2cnc(NCCN3CCOCC3)cc2c1Nc1ccc(Cl)cc1F

fraction unbound [2]: 0.02
IC50 [3]: > 40 µM
IC50 [4]: 110 µM
solubility ([5]; read-out: Solubility): 2 µg/mL (≈ 4.94 µM)
IC50 (Protein kinase C (PKC)): > 400 µM
IC50 [6]: > 400 µM
SMILES: N#Cc1cnc2cnc(NCc3cccnc3)cc2c1Nc1ccc(F)c(Cl)c1

IC50 [1]: 1.8 µM
SMILES: N#Cc1cnc2cnc(NC(CN3CCOCC3)c3ccccc3)cc2c1Nc1ccc(F)c(Cl)c1 (stereo unspecified)

fraction unbound [2]: < 0.01
IC50 [3]: 0.96 µM
IC50 [4]: > 400 µM
solubility ([5]; read-out: Solubility): 1 µg/mL (≈ 2.07 µM)
IC50 (Protein kinase C (PKC)): > 400 µM
IC50 [6]: 3 µM
SMILES: N#Cc1cnc2cnc(NCCN3CCOCC3)cc2c1Nc1ccc(Sc2ccccc2)cc1

IC50 [1]: > 40 µM
SMILES: N#Cc1cnc2cnc(NCCN3CCOCC3)cc2c1Nc1ccc(S(=O)(=O)c2ccccc2)cc1

IC50 [1]: > 40 µM
SMILES: CN(Cc1ccccc1)c1cc2c(Nc3ccc(F)c(Cl)c3)c(C#N)cnc2cn1

IC50 [1]: 0.073 µM
SMILES: N#Cc1cnc2cnc(NCc3ccccc3)cc2c1Nc1ccc(F)c(Cl)c1

fraction unbound [2]: < 0.01
IC50 [1]: 0.38 µM
IC50 [3]: 0.8 µM
IC50 [4]: > 400 µM
solubility ([5]; read-out: Solubility): 1 µg/mL (≈ 2.14 µM)
IC50 (Protein kinase C (PKC)): 200 µM
IC50 [6]: 90 µM
SMILES: N#Cc1cnc2cnc(NCCN3CCOCC3)cc2c1Nc1ccc(Oc2ccccc2)cc1

IC50 [1]: > 40 µM
SMILES: CC[C@H](Nc1cc2c(Nc3ccc(F)c(Cl)c3)c(C#N)cnc2cn1)c1ccccc1

IC50 [1]: 21 µM
SMILES: CN1CCN(CCCNc2cc3c(Nc4ccc(F)c(Cl)c4)c(C#N)cnc3cn2)CC1

IC50 [1]: > 40 µM
SMILES: N#Cc1cnc2cnc(NCCN3CCOCC3)cc2c1Nc1ccc(Cl)cc1

fraction unbound [2]: 0.01
IC50 [1]: 0.002 µM
IC50 [3]: 0.63 µM
IC50 (MAP kinase p38): > 400 µM
IC50 [7]: 13.6 µM
IC50 [4]: > 400 µM
solubility [5]: Insoluble
IC50 (Protein kinase C (PKC)): > 400 µM
IC50 [6]: 4 µM
IC50 [8]: 0.8 µM
SMILES: N#Cc1cnc2cnc(NCCN3CCOCC3)cc2c1Nc1ccc(Cc2ccccc2)cc1

IC50 [1]: > 40 µM
SMILES: N#Cc1cnc2cnc(NCCN3CCOCC3)cc2c1NCc1ccc(F)c(Cl)c1

IC50 [1]: 10 µM
SMILES: N#Cc1cnc2cnc(NCCN3CCOCC3)cc2c1Nc1ccc(Cl)c(Cl)c1

IC50 [1]: 3.57 µM
SMILES: N#Cc1cnc2cnc(NCCCN3CCCC3)cc2c1Nc1ccc(F)c(Cl)c1

IC50 [1]: > 40 µM
SMILES: N#Cc1cnc2cnc(NC3CCCC3)cc2c1Nc1ccc(F)c(Cl)c1

fraction unbound [2]: 0.15
IC50 [3]: 15 µM
IC50 [4]: > 400 µM
solubility ([5]; read-out: Solubility): 64 µg/mL (≈ 150 µM)
IC50 (Protein kinase C (PKC)): 30 µM
IC50 [6]: 40 µM
SMILES: N#Cc1cnc2cnc(NCCN3CCOCC3)cc2c1Nc1ccc(F)c(Cl)c1
